SMILES strings stand for the structures.

Chain of DRAK2 (O94768 whole entry, species assumed): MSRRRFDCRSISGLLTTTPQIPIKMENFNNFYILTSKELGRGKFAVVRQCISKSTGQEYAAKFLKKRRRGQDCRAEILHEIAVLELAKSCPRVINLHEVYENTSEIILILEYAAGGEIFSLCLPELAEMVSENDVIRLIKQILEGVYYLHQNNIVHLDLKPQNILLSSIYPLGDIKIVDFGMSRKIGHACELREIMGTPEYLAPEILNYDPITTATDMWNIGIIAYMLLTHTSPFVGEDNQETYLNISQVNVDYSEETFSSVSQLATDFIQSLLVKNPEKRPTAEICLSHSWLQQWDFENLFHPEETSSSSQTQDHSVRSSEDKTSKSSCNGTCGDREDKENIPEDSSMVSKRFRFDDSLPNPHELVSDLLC

This assay has as its target DRAK2 (Homo sapiens (Human), UniProt O94768). Kind of assay: Evaluation of DRAK2 inhibitory activity by ADP-Glo kinase assay. The assay is classed as biochemical. Particulars: ADP-Glo luminescent kinase assay. The text has this:
To determine the inhibitory activity of compounds against kinases by the kinase assay kit ADP-GLO.
DRAK2 is a serine/threonine protein kinase. ADP Glo& #8482; Kinase Assay (ADP Glo& #8482; Kinase Assay Kit) is a luminescent kinase assay kit that can detect ADP formed during kinase reactions; this kit can firstly convert ADP into ATP, which is then captured by Ultra Glo& #8482, luciferase and ultimately converts into light. The emitted light signal is positively correlated with the corresponding ATP, thus through this method, the inhibitory activity of small molecule compounds on DRAK2 can be measured.
The compound was dissolved in DMSO before experiment to prepare stock solution.
When using, the stock solution was diluted with culture medium to a desired concentration.
• 1. 1 μl of compound was added to the well for each assay • 2. […] 2 μl of ATP was added to each well of the assay plate • 4. the plate was shook and centrifuged.
2.5 μl ADP-Glo™ reagent was add to terminate kinase reaction and consume unconsumed ATP, leaving only ADP and very low ATP background to incubate at room temperature for 60 minutes.
5 μl of kinase assay reagent was add to convert ADP to ATP, and luciferase and […] were introduced to detect ATP.
Envision was used to measure luminescence
• 1. Values were copied from Envision program
The “minimum” refers to the proportion of without enzyme control, while “maximum” refers to the proportion of DMSO control. • 3. GraphPad Prism 5.0 was used to process data
Through this method, the inhibitory activity of small molecule compounds on DRAK2 can be obtained.
The molecule `CCCCCCc1cccc(CCCc2cc(O)cc(O)c2Cl)c1` [Compound 28] showed an IC50 of 4.06 ± 0.35 µM.
The result for `CCCCCCc1cccc(CCCc2cc(O)cc(NS(=O)(=O)CC)c2)c1` [Compound 39] reads 4.93 ± 1.09 µM; that for `CCCCCCC=CCCCCCCCc1ccc(O)cc1O` [Compound 1], 7.73 ± 0.7 µM; that for `CCCCCCc1cccc(CCCc2cc(O)cc(O)c2)c1` [Compound 17], 4.94 ± 1.18 µM.
